Key:
κOR [1] = target: T1, κOR (Homo sapiens, UniProt P41145); assay: PathHunter β-arrestin-2 recruitment assay at the κOR; format: cell-based; conditions: FIG. 6
T1 construct: host or cells: CHO-K1
Description: Cell Lines and Cell Culture. To perform the HitHunter cAMP accumulation assay, Chinese hamster ovary cells (CHO-K1) stably expressing human μ-opioid receptor (OPRM1, catalog no. 95-0107C2, DiscoverX, Fremont, CA, USA), K-opioid receptor (OPRK1, catalog no. 95-0088C2, DiscoverX, Fremont, CA, USA), or 6-opioid receptor (OPRD1, catalog no. 95-0108C2, DiscoverX, Fremont, CA, USA) were maintained at 80% confluence in F-12 media supplemented with 10% fetal bovine serum, 1% penicillin/streptomycin/L-glutamine, and 800 μg/mL G418. To perform the PathHunter β-arrestin-2 recruitment assay, U2OS-human κ opioid receptor (κOR) cells stably expressing the κOR and β-arrestin-2 (RRID:CVCL_LA97, DiscoverX, Fremont, CA, USA) were maintained in McCoy's 5A media supplemented with 10% FBS and containing 500 μg/mL geneticin and 250 μg/mL hygromycin. All cells were grown 37° C. under 5% CO2 in a humidified incubator under sterile conditions in T75 flasks. During passaging, cells were dislodged from the flask following a 3-5 min incubation with 0.25% trypsin or non-enzymatic detachment reagent and subcultivated at ratios of 1:10 (CHO) and 3:10 (U2OS).
PathHunter β-arrestin-2 Recruitment Assay. The R-arrestin-2 recruitment assay was performed using U2OS-human (κOR) PathHunter R-arrestin-2 cells (DiscoverX) as previously described.^77

5-HT7A = 5-HT7A (Homo sapiens, UniProt P34969); assay: PDSP radioligand displacement binding; conditions: average of three independent trials
Sigma 2 = assay: PDSP radioligand displacement binding; conditions: average of three independent trials
Alpha1D = target: T2, Alpha1D (Homo sapiens, UniProt P25100); assay: PDSP radioligand displacement binding; conditions: average of three independent trials
T2 sequence (P25100 1-572): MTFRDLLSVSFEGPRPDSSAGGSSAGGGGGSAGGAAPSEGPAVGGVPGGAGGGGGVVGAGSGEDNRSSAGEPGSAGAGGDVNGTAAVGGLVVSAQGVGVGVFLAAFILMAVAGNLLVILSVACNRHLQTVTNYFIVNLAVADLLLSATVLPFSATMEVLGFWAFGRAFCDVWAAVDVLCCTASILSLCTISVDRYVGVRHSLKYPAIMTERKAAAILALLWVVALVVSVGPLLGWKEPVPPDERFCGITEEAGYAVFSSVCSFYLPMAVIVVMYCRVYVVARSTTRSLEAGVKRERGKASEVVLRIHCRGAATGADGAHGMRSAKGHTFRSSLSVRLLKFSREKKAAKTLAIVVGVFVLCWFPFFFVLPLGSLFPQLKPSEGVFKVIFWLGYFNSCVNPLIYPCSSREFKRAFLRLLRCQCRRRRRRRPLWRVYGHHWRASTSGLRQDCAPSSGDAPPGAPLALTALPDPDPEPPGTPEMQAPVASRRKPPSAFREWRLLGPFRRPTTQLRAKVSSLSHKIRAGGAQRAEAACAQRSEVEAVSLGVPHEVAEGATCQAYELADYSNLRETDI

Alpha7 = Alpha7 (Homo sapiens, UniProt P36544); assay: PDSP radioligand displacement binding; conditions: average of three independent trials
Alpha1A = target: T3, Alpha1A (Homo sapiens, UniProt P35348); assay: PDSP radioligand displacement binding; conditions: average of three independent trials
T3 sequence (P35348 1-466): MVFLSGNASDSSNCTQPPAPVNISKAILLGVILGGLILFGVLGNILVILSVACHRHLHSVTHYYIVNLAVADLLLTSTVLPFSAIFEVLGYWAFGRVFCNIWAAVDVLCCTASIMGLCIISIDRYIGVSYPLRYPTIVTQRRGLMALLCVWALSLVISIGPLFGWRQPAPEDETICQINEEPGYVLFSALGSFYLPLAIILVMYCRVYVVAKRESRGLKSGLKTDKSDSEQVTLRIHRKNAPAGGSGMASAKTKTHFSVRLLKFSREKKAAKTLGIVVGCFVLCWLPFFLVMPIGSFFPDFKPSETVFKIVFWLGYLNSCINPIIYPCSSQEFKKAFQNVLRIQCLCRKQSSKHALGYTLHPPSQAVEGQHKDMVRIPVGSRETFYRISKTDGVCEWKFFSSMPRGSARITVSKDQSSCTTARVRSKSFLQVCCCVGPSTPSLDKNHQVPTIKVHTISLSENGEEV

5-HT5A = 5-HT5A (Homo sapiens, UniProt P47898); assay: PDSP radioligand displacement binding; conditions: average of three independent trials
κOR [2] = target: T1, κOR; assay: Competitive radioligand binding with [3H]U69,593; conditions: radioligand displacement assay
κOR [3] = target: T1, κOR; assay: cell-based; format: cell-based
μOR = target: T4, μOR (Homo sapiens, UniProt P35372); assay: Competitive radioligand binding with [3H]DAMGO; conditions: radioligand displacement assay
T4 construct: host or cells: CHO-K1

CXCR7 = CXCR7 (Homo sapiens, UniProt P25106); assay: CXCR7 agonism follow-up of the PRESTO-Tango screen; format: cell-based; conditions: weak agonist compared to the CXCR7 agonist VUF11207
KOR = KOR (Homo sapiens, UniProt P41145); assay: PDSP radioligand displacement binding; conditions: average of three independent trials

SMILES | βArr2 recruitment compared with U50,488 (κOR [1]) | Ki (5-HT7A) [nM] | Ki (Sigma 2) [nM] | Ki (nM) at Alpha1D (Alpha1D) | Ki (Alpha7) [nM] | Ki (Alpha1A) [nM] | Ki (5-HT5A) [nM] | Ki (κOR [2]) [nM] | κOR cAMP inhibition pEC50 ± SEM (κOR [3]) | EC50 (κOR [3]; read-out: κOR cAMP inhibition EC50) [nM] | Ki (Alpha1D) [nM] | Ki (μOR) [nM] | concentration at which CXCR7 is activated (CXCR7) [µM] | Ki (KOR) [nM]
C/C=C1/CN2CC[C@]34C(=C(C(=O)OC)[C@H]1C[C@H]23)Nc1ccc(Br)cc14 [Compound 2, 10-Bromoakuammicine] | more efficacious than the reference compound U50,488 | 1520 | 2620 | — (“—” indicates compound produced less than 50% displacement of radioligand in primary binding screen at 10 μM.) | 7000 | 1000 | 721 | – | – | – | – | – | – | –
C/C=C1/CN2CC[C@]34C(=C(C(=O)OC)[C@H]1C[C@H]23)Nc1ccc(I)cc14 [Compound 3, 10-Iodoakuammicine] | more efficacious than the reference compound U50,488 | 1380 | 2220 | – | 5490 | 883 | 829 | 0.087 | 8.2 ± 0.1 | 5.7 | 1140 | 3600 | > 3 | 1
